The record followed here is patent publication US4382889A, “Epoxysuccinic acid derivatives” (Taisho Pharmaceutical Co., Ltd., priority 1979, dated 1983).

The experiment deals with T1, papain (Carica papaya, UniProt P00784).
T1 construct: purchased Sigma Chem. Co
T1 sequence (P00784 134-345): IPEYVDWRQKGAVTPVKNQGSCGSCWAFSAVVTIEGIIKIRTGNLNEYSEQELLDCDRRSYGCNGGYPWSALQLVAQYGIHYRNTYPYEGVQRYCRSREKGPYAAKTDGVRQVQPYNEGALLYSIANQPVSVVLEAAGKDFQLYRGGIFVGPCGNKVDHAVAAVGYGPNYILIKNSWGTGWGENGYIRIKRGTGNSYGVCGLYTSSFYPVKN
Nature of the experiment: Papain inhibitory activity (method of K. Hanada et al). The class given is biochemical. The following applies: papain 80 ug/ml, Sigma, 2 x cry. The method, then:
Papain inhibitory activity of the compounds of the present invention was assayed by the method of K. Hanada et al, [Argric. Biol. Chem., 42, No. 3, 523(1978)] using papain (80 ug/ml, Sigma Chem. Co., 2 x cry.).

Turning to `CC(C)C[C@H](NC(=O)C1OC1C(=O)O)C(=O)N[C@@H](CCCN)C(=O)O` (mixture of isomers) [Compound 44, N-(DL-3-trans-carboxyoxirane-2-carbonyl)-L-leucyl-L-ornithine], the “Papain ID50 (amount of inhibitor for 50% inhibition)” value turned out to be 0.250 µg.

For `CC(C)C[C@H](NC(=O)[C@H](CC(C)C)NC(=O)C1OC1C(=O)OCc1ccccc1)C(N)=O` (some centres unmarked) [Compound 34], the “Papain ID50 (amount of inhibitor for 50% inhibition)” value was 0.298 µg.

With `COC(=O)[C@H](CC(C)C)NC(=O)[C@H](CC(C)C)NC(=O)C1OC1C(=O)OCc1ccccc1` (some centres unmarked) [Compound 32], the “Papain ID50 (amount of inhibitor for 50% inhibition)” value was 0.227 µg.

As for `COC(=O)[C@@H](CC(C)C)NC(=O)[C@H](CC(C)C)NC(=O)[C@H]1O[C@@H]1C(=O)OCc1ccccc1` [Compound 25, N-(L-3-trans-benzyloxycarbonyloxirane-2-carbonyl)-L-leucyl-D-leucine methyl ester], the “Papain ID50 (amount of inhibitor for 50% inhibition)” value amounted to 0.223 µg.

As to `CC(C)C[C@H](NC(=O)C1OC1C(=O)OCc1ccccc1)C(=O)N(C)c1ccccc1` (mixture of isomers) [Compound 10, N-[N'-(DL-3-trans-benzyloxycarbonyloxirane-2-carbonyl)-L-leucyl]-N-methylaniline], the “Papain ID50 (amount of inhibitor for 50% inhibition)” value came out at 0.510 µg.

In the case of `CCCNC(=O)[C@H](CC(C)C)NC(=O)C1OC1C(=O)OCC` (some centres unmarked) [Compound 9], the “Papain ID50 (amount of inhibitor for 50% inhibition)” value is 0.313 µg.

`CCOC(=O)C1OC1C(=O)N[C@@H](CC(C)C)C(=O)NC1CCCC1` (some centres unmarked) [Compound 6]: the “Papain ID50 (amount of inhibitor for 50% inhibition)” value came to 0.410 µg.

With `COC(=O)CC[C@H](NC(=O)[C@H](CC(C)C)NC(=O)C1OC1C(=O)O)C(=O)OC` (mixture of isomers) [Compound 47, N-(DL-3-transcarboxyoxirane-2-carbonyl)-L-leucyl-L-glutamic acid dimethyl ester], the “Papain ID50 (amount of inhibitor for 50% inhibition)” value was determined as 0.260 µg.

With `COC(=O)[C@H](CCCN=C(N)N[N+](=O)[O-])NC(=O)[C@H](CC(C)C)NC(=O)C1OC1C(=O)OCc1ccccc1` (mixture of isomers) [Compound 26, N-(DL-3-trans-benzyloxycarbonyloxirane-2-carbonyl)-L-leucyl-N^G -nitro-L-arginine methyl ester], the “Papain ID50 (amount of inhibitor for 50% inhibition)” value was 0.139 µg.

With `CCOC(=O)C1OC1C(=O)N[C@@H](Cc1ccccc1)C(=O)N[C@@H](Cc1ccccc1)C(=O)OC` (mixture of isomers) [Compound 18, N-(DL-3-trans-ethoxycarbonyloxirane-2-carbonyl-L-phenylalanyl-L-phenylalaninemethyl ester], the “Papain ID50 (amount of inhibitor for 50% inhibition)” value turned out to be 29.07 µg.

Turning to `CCOC(=O)C1OC1C(=O)N[C@@H](CC(C)C)C(=O)N1CCCC1` (mixture of isomers) [Compound 3, N-[N'-(DL-3-trans-ethoxycarbonyloxirane-2-carbonyl)-L-leucyl]pyrrolidine], the “Papain ID50 (amount of inhibitor for 50% inhibition)” value came to 1.10 µg.

As to `CCOC(=O)C1OC1C(=O)N[C@@H](CC(C)C)C(=O)NCCC(C)C` (some centres unmarked) [Compound 7], the “Papain ID50 (amount of inhibitor for 50% inhibition)” value was determined as 0.410 µg.

Regarding `CCOC(=O)C1OC1C(=O)N[C@@H](CC(C)C)C(=O)NC1CC1` (some centres unmarked) [Compound 5], the “Papain ID50 (amount of inhibitor for 50% inhibition)” value stood at 0.284 µg.

With `CCOC(=O)C1OC1C(=O)N[C@@H](CC(C)C)C(=O)NC1CCCCC1` (mixture of isomers) [Compound 1, N-[N'-(DL-3-trans-ethoxycarbonyloxirane-2-carbonyl)-L-leucyl]cyclohexylamine], the “Papain ID50 (amount of inhibitor for 50% inhibition)” value was determined as 0.439 µg.

Turning to `COC(=O)[C@@H](CC(C)C)NC(=O)[C@H](CC(C)C)NC(=O)C1OC1C(=O)OCc1ccccc1` (mixture of isomers) [Compound 23, N-(DL-3-trans-benzyloxycarbonyloxirane-2-carbonyl)-L-leucyl-D-leucine methyl ester], the “Papain ID50 (amount of inhibitor for 50% inhibition)” value stood at 0.221 µg.

In the case of `COC(=O)[C@@H](CC(C)C)NC(=O)[C@@H](CC(C)C)NC(=O)C1OC1C(=O)OCc1ccccc1` (some centres unmarked) [Compound 33], the “Papain ID50 (amount of inhibitor for 50% inhibition)” value came out at 0.255 µg.

As to `CCC(C)[C@H](NC(=O)C1OC1C(=O)OCc1ccccc1)C(=O)N[C@@H](Cc1ccc(O)cc1)C(=O)OC` (some centres unmarked) [Compound 39], the “Papain ID50 (amount of inhibitor for 50% inhibition)” value came out at 0.408 µg.

For the compound `CCOC(=O)CNC(=O)[C@@H](NC(=O)C1OC1C(=O)OCc1ccccc1)C(C)CC` (some centres unmarked) [Compound 40], the “Papain ID50 (amount of inhibitor for 50% inhibition)” value is 0.481 µg.

`COC(=O)[C@H](CCSC)NC(=O)[C@H](CC(C)C)NC(=O)C1OC1C(=O)OCc1ccccc1` (some centres unmarked) [Compound 27]: the “Papain ID50 (amount of inhibitor for 50% inhibition)” value stood at 0.216 µg.

For the compound `CC(C)C[C@H](NC(=O)C1OC1C(=O)OCc1ccccc1)C(=O)N(C)C` (mixture of isomers) [Compound 11, N-[N'-(DL-3-trans-benzyloxycarbonyloxirane-2-carbonyl)-L-leucyl]dimethylamine], the “Papain ID50 (amount of inhibitor for 50% inhibition)” value was found to be 0.184 µg.

Turning to `CCOC(=O)[C@H](Cc1ccccc1)NC(=O)[C@H](CC(C)C)NC(=O)C1OC1C(=O)OCc1ccccc1` (some centres unmarked) [Compound 31], the “Papain ID50 (amount of inhibitor for 50% inhibition)” value was found to be 0.375 µg.

`CC[C@H](C)[C@H](NC(=O)[C@H](CC(C)C)NC(=O)C1OC1C(=O)OCc1ccccc1)C(=O)OC` (mixture of isomers) [Compound 21, N-(DL-3 trans-benzyloxycarbonyloxirane-2-carbonyl)-L-leucyl-L-isoleucine methyl ester]: the “Papain ID50 (amount of inhibitor for 50% inhibition)” value was 0.169 µg.

On to `COC(=O)[C@@H](NC(=O)[C@H](CC(C)C)NC(=O)C1OC1C(=O)OCc1ccccc1)[C@@H](C)O` (some centres unmarked) [Compound 29], for which the “Papain ID50 (amount of inhibitor for 50% inhibition)” value came to 0.35 µg.

Take `COC(=O)[C@@H](CC(C)C)NC(=O)[C@H](CC(C)C)NC(=O)[C@@H]1O[C@H]1C(=O)OCc1ccccc1` [Compound 24, N-(D-3-trans-benzyloxycarbonyloxirane-2-carbonyl)-L-leucyl-D-leucine methyl ester]: the “Papain ID50 (amount of inhibitor for 50% inhibition)” value stood at 0.219 µg.

For `COC(=O)[C@@H]1CCCN1C(=O)[C@H](CC(C)C)NC(=O)C1OC1C(=O)O` (mixture of isomers) [Compound 46, N-(DL-3-trans-carboxyoxirane-2-carbonyl)-L-leucyl-L-proline methyl ester], the “Papain ID50 (amount of inhibitor for 50% inhibition)” value came to 0.105 µg.

Turning to `CCOC(=O)C1OC1C(=O)N[C@@H](CC(C)C)C(=O)NCCc1ccccc1` (some centres unmarked) [Compound 8], the “Papain ID50 (amount of inhibitor for 50% inhibition)” value was found to be 0.446 µg.

For `CCOC(=O)C1OC1C(=O)N[C@@H](CC(C)C)C(=O)N1CCCCC1` (mixture of isomers) [Compound 4, N-[N'-(DL-3-trans-ethoxycarbonyloxirane-2-carbonyl)-L-leucyl]piperidine], the “Papain ID50 (amount of inhibitor for 50% inhibition)” value turned out to be 0.417 µg.

Consider `COC(=O)[C@H](CC(C)C)NC(=O)[C@@H](CC(C)C)NC(=O)C1OC1C(=O)OCc1ccccc1` (mixture of isomers) [Compound 22, N-(DL-3-trans-benzyloxycarbonyloxirane-2-carbonyl)-D-leucyl-L-leucine methyl ester], for which the “Papain ID50 (amount of inhibitor for 50% inhibition)” value is 8.28 µg.

Take `CCCCCCCCCCNC(=O)[C@H](CC(C)C)NC(=O)C1OC1C(=O)OCC` (mixture of isomers) [Compound 2, N-[N'-(DL-3-trans-ethoxycarbonyloxirane-2-carbonyl)-L-leucyl]-n-decylamine]: the “Papain ID50 (amount of inhibitor for 50% inhibition)” value turned out to be 0.227 µg.
